Data as given in patent publication US20200078360A1, “SMALL MOLECULE DUAL INHIBITORS OF EGFR/PI3K AND USES THEREOF” (The Regents of the University of Michigan, priority 2016, published 2020).

Experiments:
[1] = tested on: ERBB and PI3K family members; experiment: potency and selectivity against kinase family members (FIG. 1); assay type: biochemical
[2] = tolerability of daily oral dosing; assay type: in vivo; conditions: daily oral dosing of 100 mg/kg, FIG. 6
Procedure: (§1) For the xenograft studies established from the patient-derived xenograft (PDX) models (UM CRC 14-929 and UM CRC 15-1269), female 6- to 7-week-old NCR nude mice (CrTac:NCr-Foxnlnu from Taconic) were implanted subcutaneously with low-passage PDX tumor fragments (30 mg) into the region of the right axilla. For the xenograft studies established from cell lines (CT-26), cells were injected (1×10^6 cells per injection) into the flanks of female 6- to 7-week old NCR nude mice. In both cases, the mice were randomized into treatment groups and treatments initiated when tumors reached 100 to 200 mg. […] Subcutaneous tumor volume and body weights were measured two to three times a week. Tumor volumes were calculated by measuring two perpendicular diameters with calipers and using the formula: tumor volume ¼ (length x width^2)/2. Percent treated/control (% TC) was calculated by dividing the median treated tumor weight by the median control tumor weight and multiplying by 100 on the last day of treatment. […] Increase in lifespan was calculated by dividing the median increase in lifespan (days) by the median survival time of the vehicle control group. […]

RKO (BRAFmt) tumors = experiment: single agent activity against RKO tumors; assay type: in vivo; conditions: FIG. 5
[3] = tested on: EGFR and PI3K pathway signaling; experiment: cellular EGFR and PI3K pathway signaling (Western blots); assay type: cell-based; conditions: FIG. 4
Procedure: Cells or tumors were lysed in NP-40 lysis buffer [25 mmolL Tris-HCl (pH 7.6), 150 mmol/L NaCl, 1% Nonidet P-40, 10% glycerol, 1 mmol/L EDTA, 1 mmol/L dithiothreitol, and protease and phosphatase inhibitors], rocked for 30 minutes at 4° C., and centrifuged at 13,200 rpm for 20 minutes at 4° C. Protein concentration was determined by BioRad Protein Assays and lysates were subsequently subjected to SDS gel electrophoresis. Proteins were transferred to polyvinylidene fluoride (PVDF) membranes and probed with primary antibodies recognizing p-EGFR tyr1068), EGFR, p-HER2 (tyr1248), HER2, p-AKT (ser473), p-AKT (thr308), AKT, pERK1/2 (thr202/tyr204), ERK1/2, pS6K (ser235/236), S6K, and cleaved PARP (all from Cell Signaling Technology) and beta actin (Abcam). After incubation with anti-rabbit HRP-linked secondary antibody (Jackson ImmunoResearch Laboratories, Inc.), proteins were detected using chemiluminescence (GE Healthcare).

HCT-116 (KRASmt) tumors = experiment: single agent activity against HCT-116 tumors; assay type: in vivo; conditions: FIG. 5
xenograft = experiment: in vivo efficacy in combination with MEK inhibitors (FIG. 22); parameters: species or system mice
Procedure: as §1

[4] = metabolic stability (FIG. 2); assay type: in vitro ADME

- potency and selectivity against ERBB and PI3K family members [1]: potent and highly selective
- metabolic stability [4]: favorable metabolic stability
Structure (SMILES): CS(=O)(=O)Nc1cc(-c2ccc3ncnc(Nc4ccc(F)c(Cl)c4)c3c2)cnc1Cl [MTX-211]
- tolerability [2]: well tolerated
- activity against RKO (BRAFmt) tumors (RKO (BRAFmt) tumors): single agent activity
- modulation of cellular EGFR and PI3K pathway signaling [3]: modulates cellular EGFR and PI3K pathway signaling
- activity against HCT-116 (KRASmt) tumors (HCT-116 (KRASmt) tumors): single agent activity
- in vivo efficacy when combined with MEK inhibitors (xenograft): in vivo potentiation of MTX-211 efficacy
